Experimental data as given in patent EP4076432B1, “COMPOSITION AND METHOD FOR THE PREVENTION AND TREATMENT OF OBESITY” (Vector Vitale IP LLC, priority 2019, dated 2021).
Values joined by “and” are separate entries in the source; they are usually repeats but may differ in a detail not shown here. Identical values can stand only once. “Also recorded” adds a separate entry of the source.

What was measured:
[1] = Intraperitoneal administration of zinc preparations to intact rats (insulin, superoxide dismutase, islets of Langerhans, metals, body weight); type: in vivo; details: 7 injections; for accumulation of zinc in the kidney tissues / accumulation of zinc in the liver tissues: day 1 and day 7 after withdrawal
Protocol: The current dose was calculated by zinc.
The rat serum was prepared from whole blood.
The total kidney and liver homogenates were centrifuged at 600 g for 15 minutes.
The optical density was measured at 492 nm.

[2] = Glucose tolerance test; type: in vivo, rats; design: Glucose tolerance test, 0 min (1 h after effector administration): unit not given here; details: for glucose levels in the glucose tolerance test: compared with the control group
Excerpt: 5 animals were used within the same experimental group.

[3] = tested on: serotonergic system (serum); assay: Serum tryptophan, serotonin and monoamine oxidase activity in obesity model; type: in vivo, rats; details: zinc aspartate 4.5 mg/animal intragastrically every third day, week 10
Protocol: (§1) Animal serum was prepared from whole blood. […] Samples were centrifuged for 15 min at 2500 g.
(§2) The samples were reprecipitated by centrifugation.
(§3) University. Medicine. - 2000. - 1, No. 494. - P. 40-43.

[4] = tested on: islets of Langerhans; assay: Morpho-functional analysis of pancreas in obesity model; type: in vivo, rats; details: zinc aspartate 4.5 mg/animal intragastrically every third day
Excerpt: After fixation, the pieces were rinsed in tap water. Then the material was dehydrated.
Dried preparations were stained with hematoxylin and eosin.

[5] = tested on: central serotonergic system (brain); assay: Indicators of the central serotonergic system (brain) in obesity model; type: in vivo, rats; details: zinc aspartate 4.5 mg/animal intragastrically every third day, week 10
Excerpt: The animal's head was separated from the body and the skull was carefully cut. The brain was carefully lifted with a scalpel from the bony vault, all cranial nerves were amputated and the brain was removed from the skull. The brain was divided into two parts with a longitudinal incision made between the hemispheres.
(§4) The tissue : buffer ratio was 1:10.
as §2, §3
(§5) The supernatant was used in further studies.

[6] = tested on: pro-inflammatory (IL-1, IL-6, IL-12, IFN-γ) and anti-inflammatory (IL-4, IL-10, TGF) cytokines; assay: Cytokine profile in adipose tissue in obesity model (immunoenzyme method); type: in vivo, rats; details: zinc aspartate 4.5 mg/animal intragastrically every third day, week 10
Protocol: Adipose tissue was crushed using cold scissors then transferred to a homogenizer with a loose-fitting Teflon pestle. […] Primary homogenate thus obtained was centrifuged at 600 g for 15 minutes. The supernatant was carefully collected and re-centrifuged at 15,000 g for 15 minutes. The supernatant was then frozen and stored at -80°C until the experiments.
The antigen solution, previously diluted with 0.1 M NaHCO3 buffer, pH 9.6, to a concentration of 10 µg/ml, was incubated in the plate wells for 12 hours at 4°C. Unbound material was removed by washing the wells three times with TBS buffer, first with 0.05% Tween-20, then without Tween-20. Non-specific binding sites were blocked by adding a solution of 5% skim milk or a solution of 1% bovine serum albumin to the plate wells and incubating them for 60 minutes at 37°C. After incubation, the wells were washed three times with TBS, first with 0.05% Tween-20, then without Tween-20. Primary antibodies were diluted in TBS in accordance with the manufacturer's instructions and incubated with the antigen for 60 min at 37°C. After washing with TBS working buffer, first with the addition of 0.05% Tween-20, then without Tween-20, the conjugate of secondary antibodies was added to the wells and incubated for 60 min at 37°C. As with the primary antibodies, secondary antibodies were diluted in TBS in accordance with the manufacturer's instructions. After the washing procedure, phenyldiamine dihydrochloride as substrate in 0.05M phosphate-citrate buffer was added to each well, followed by the addition of 0.3% hydrogen peroxide. After 10 minutes, the reaction time needed for development, 2.5 n H2SO4 was added.
The absorbance at a wavelength of 492 nm was measured using a µQuant microplate spectrophotometer (BioTek Instruments).

[7] = tested on: products of oxidative modification of proteins; assay: Serum levels of products of oxidative modification of proteins in obesity model; type: in vivo; details: DIO rats (high-fat diet), zinc aspartate 4.5 mg/animal intragastrically every third day, week 10
Protocol: as §1
Proteins were precipitated by adding a 20% TCA solution.

[8] = tested on: pro-inflammatory (IL-1, IL-6, IL-12, IFN-γ) and anti-inflammatory (IL-4, IL-10, TGF) cytokines; assay: Serum cytokine profile in obesity model (immunoenzyme method); type: in vivo, rats; details: zinc aspartate 4.5 mg/animal intragastrically every third day
Protocol: as §1

[9] = tested on: superoxide dismutase; assay: Serum superoxide dismutase activity in obesity model; type: in vivo; details: DIO rats (high-fat diet), zinc aspartate 4.5 mg/animal intragastrically every third day, week 10
Protocol: To measure superoxide dismutase activity, a method based on the ability of this enzyme to inhibit auto-oxidation of adrenaline was used.
Serum aliquots were added to microplate wells containing 0.2M bicarbonate buffer, pH 10. The reaction was initiated by adding 0.1% adrenaline solution in each well. A relevant volume of buffer was added to the "blank" wells to which no test sample was added. The optical density was measured at a wavelength of 347 nm using a µQuant microplate spectrophotometer (BioTek Instruments) at the 4th and 8th minute after adrenaline was added to the wells. The enzyme activity was expressed in relative units/min/mg.

[10] = Anthropometric values, amount and calorie content of food in high-fat diet induced obesity model; details: zinc aspartate 4.5 mg/animal intragastrically every third day; for BMI (g/cm^2) / Weight gain as of the end of the experiment (%): week 10
Excerpt: White non-pedigree rats with an initial weight of 195-205±10 g were used in the experiment.
Before the start of the experiment, animals were maintained on a standard diet of the vivarium. To induce obesity in experimental animals, they were fed high-fat diet which consisted of standard feed (60%), lard (10%), chicken eggs (10%), sucrose (9%), peanuts (5%), dry milk (5%) and sunflower oil (1%) (1%) (see X. H. Shen et al., Exp. Biol. and Med. 235: 47-51 (2010)).
Animals in all groups were weighed once a week after an overnight fast. The amount of feed to be consumed by the animals was determined daily. At the end of a 10-week period of the development of obesity models, 24 hours after the last administration of the zinc isotope solution, animals were removed from their cages and decapitated.
The body mass index (BMI) (the ratio of body weight (g) to the square of body length (cm^2)) was calculated at the end of the experiment.
Animals with an initial weight of 195-205±10 g maintained on the standard diet of the vivarium before performing obesity models were used in the experiments.
Animals in all groups were weighed once a week after an overnight fast. The amount of feed to be consumed by the animals was determined daily.

[11] = Serum lipids, alkaline phosphatase activity and albumin in obesity model; type: in vivo, rats; details: table is an image
Excerpt: Test kit // Pliva-Lachema Diagnostika. - 2008.
The alkaline phosphatase activity was expressed in relative units.

[12] = tested on: peripheral serotonergic system (duodenum); assay: Indicators of the peripheral serotonergic system (duodenum) in obesity model; type: in vivo, rats; details: zinc aspartate 4.5 mg/animal intragastrically every third day, week 10
Excerpt: as §4
The samples were reprecipitated by centrifugation. […]
as §5

[13] = 3750 µg of zinc per 1 kg intraperitoneally every other day
[14] = 3750 µg of zinc per 1 kg intraperitoneally
[15] = rats having obesity (high-fat diet)
[16] = DIO rats (high-fat diet), week 10
[17] = control rats (standard diet), week 10

In the case of CC(=O)[O-].CC(=O)[O-].[Zn+2] [Zn acetate, Zn(CH3COO)2, reference compound], the “serum insulin levels at day 7 after the withdrawal” value [1, 13] is reported as “a drop in the insulin levels to the value of those of intact/control animals”, the “serum insulin levels on the first day after the drug withdrawal” value [1, 13] is reported as “a significant increase” and the “accumulation of zinc in the kidney tissues” value [1, 14] is reported as “significantly increased”. The “accumulation of zinc in the liver tissues” value [1, 14] was “significantly increased”, the “Glucose tolerance test, 0 min (1 h after effector administration)” value ([2]; blood glucose, fast overnight, dose: 5 mg/kg in a volume of 2 ml, individual animals 1-5, 5 mg/kg) was 4.6 and 5.2 (2×) and 4.9 and 5.1 and the “Glucose tolerance test, 60 min (1 h after glucose administration)” value ([2]; blood glucose, glucose 3 g/kg body weight in 2 ml, dose: 5 mg/kg in a volume of 2 ml, individual animals 1-5, 5 mg/kg) was 7.2 (2×) and 6.9 and 7.3 and 6.8. The “glucose levels in the glucose tolerance test” value (“glucose levels” below) [2] was “glucose levels also dropped, though not so strongly”.

For N[C@@H](CC(=O)[O-])C(=O)[O-].[Zn+2] [^64Zne, zinc aspartate], the “body weight of rats” value [1, 13] was “a significant increase in the body weight”, the “serum insulin levels at day 7 after the withdrawal” value [1, 13] was “insulin levels in the blood of animals increased” and the “serum insulin levels on the first day after the drug withdrawal” value [1, 13] was “slightly higher than in the group of intact animals”. The “serum insulin levels at day 7 after the withdrawal” value ([1]; 3750 µg of zinc per 1 kg intraperitoneally every other day, listed as zinc isotope) was “a significant increase in the insulin levels”, the “accumulation of zinc in the kidney tissues” value [1, 14] was “significantly increased” and the “accumulation of zinc in the liver tissues” value [1, 14] was “significantly increased”. For the same molecule, the “area of islets of Langerhans” value ([1]; 3750 µg of zinc per 1 kg intraperitoneally, day 7 after the last administration, compared to control group and zinc acetate group) was “a significant increase in the islet area”, the “Monoamine oxylase activity, RU/mg protein” value ([3]; DIO rats (high-fat diet)) was 3.11±0.08 RU/mg protein and the “Serotonin” value ([3]; DIO rats (high-fat diet)) was 6.33 ± 0.51 µg/g. For the same molecule, the “Tryptophan” value ([3]; DIO rats (high-fat diet)) was 66.65 ± 9.62 µg/g, the “Monoamine oxylase activity, RU/mg protein” value ([3]; control rats (standard diet)) was 2.52±0.03 RU/mg protein and the “Serotonin” value ([3]; control rats (standard diet)) was 10.16 ± 0.62 µg/g. For the same molecule, the “Tryptophan” value ([3]; control rats (standard diet)) was 56.12 ± 7.58 µg/g, the “cross-sectional surface area of the islets of Langerhans, increase compared with the obesity group” value [4, 15] was 43% and the “cross-sectional surface area of the islets of Langerhans, lower than the control value” [4, 15] was 29%. For the same molecule, the “cross-sectional surface area of the islets of Langerhans, decrease compared with the control group” value ([4]; rats that ate a standard diet) was 39%, the “Indoleamine dioxygenase activity, µmol/mg protein” value (from here on “Indoleamine dioxygenase activity”) ([5]; DIO rats (high-fat diet)) was 2007 ± 175 µmol/mg protein and the “Monoamine oxidase activity, RU/mg protein” value (“Monoamine oxidase activity” for short) ([5]; DIO rats (high-fat diet)) was 0.99±0.08 RU/mg protein. The “Serotonin” value ([5]; DIO rats (high-fat diet)) was 20.1 ± 3.21 µg/g, the “Tryptophan” value ([5]; DIO rats (high-fat diet)) was 31.56 ± 2.14 µg/g and the “Tryptophan decarboxylase activity, RU/mg protein” value (“Tryptophan decarboxylase activity” for short) ([5]; DIO rats (high-fat diet)) was 1.86 ± 0.37 RU/mg protein. For the same molecule, the “Tryptophan hydroxylase activity, RU/mg protein” value (“Tryptophan hydroxylase activity” below) ([5]; DIO rats (high-fat diet)) was 286 ± 17 RU/mg protein, the “Indoleamine dioxygenase activity” value ([5]; control rats (standard diet)) was 1178 ± 267 µmol/mg protein and the “Monoamine oxidase activity” value ([5]; control rats (standard diet)) was 0.91 ±0.06 RU/mg protein. The “Serotonin” value ([5]; control rats (standard diet)) was 25.51 ± 2.71 µg/g, the “Tryptophan” value ([5]; control rats (standard diet)) was 87.71 ± 3.41 µg/g and the “Tryptophan decarboxylase activity” value ([5]; control rats (standard diet)) was 1.63 ± 0.41 RU/mg protein. The “Tryptophan hydroxylase activity” value ([5]; control rats (standard diet)) was 291 ± 29 RU/mg protein, the IFN-γ level ([6]; DIO rats (high-fat diet)) was 4.9±0.8 RU/mg protein and the IL-4 level ([6]; DIO rats (high-fat diet)) was 5.1±1.2 RU/mg protein. It also gave an IL-6 level ([6]; DIO rats (high-fat diet)) of 6.1±0.7 RU/mg protein, an IL-10 level ([6]; DIO rats (high-fat diet)) of 5.8±0.8 RU/mg protein and an IL-12 level ([6]; DIO rats (high-fat diet)) of 1.99±0.01 RU/mg protein. The TGF level ([6]; DIO rats (high-fat diet)) was 5.2±0.9 RU/mg protein, the IFN-γ level ([6]; control rats (standard diet)) was 5.0±0.8 RU/mg protein and the IL-1 level ([6]; control rats (standard diet)) was 4.9±1.7 RU/mg protein. It also gave an IL-4 level ([6]; control rats (standard diet)) of 5.0±0.4 RU/mg protein, an IL-6 level ([6]; control rats (standard diet)) of 5.4±0.3 RU/mg protein and an IL-10 level ([6]; control rats (standard diet)) of 4.9±0.2 RU/mg protein. For the same molecule, the IL-12 level ([6]; control rats (standard diet)) was 1.0±0.03 RU/mg protein, the TGF level ([6]; control rats (standard diet)) was 5.1±0.6 RU/mg protein and the “Aldehyde-dinitrophenyl-hydrazones, nmol/mg protein” value [7] was 0.253±0.012 nmol/mg protein. For the same molecule, the “Ketone-dinitrophenyl-hydrazones, nmol/mg protein” value [7] was 0.200±0.024 nmol/mg protein, the “glucose levels” value ([2]; listed as zinc isotope) was “a drop in glucose concentration; also recorded: a decrease in glucose levels” and the “glucose levels” value ([2]; listed as zinc isotope ^64Zn) was “a significant decrease in glucose levels”. It also gave an IFN-γ level [8, 16] of 4.1±1.2 RU/mg protein, an IL-1 level [8, 16] of 4.2±0.4 RU/mg protein and an IL-4 level [8, 16] of 5.6±1.6 RU/mg protein. The IL-6 level [8, 16] was 5.1±0.4 RU/mg protein, the IL-10 level [8, 16] was 6.8±1.1 # RU/mg protein and the IL-12 level [8, 16] was 2.4±0.06 RU/mg protein. The TGF level [8, 16] was 5.7±0.3 # RU/mg protein, the TGF level ([8]; DIO rats (high-fat diet), week 10, listed as Zinc) was 5.7±0.3 RU/mg protein and the IFN-γ level [8, 17] was 4.6±0.6 RU/mg protein. The IL-1 level [8, 17] was 3.5±0.7 RU/mg protein, the IL-4 level [8, 17] was 4.6±0.8 RU/mg protein and the IL-6 level [8, 17] was 4.3±0.2 RU/mg protein. For the same molecule, the IL-10 level [8, 17] was 4.1±0.5 RU/mg protein, the IL-12 level [8, 17] was 0.3±0.04 RU/mg protein and the TGF level [8, 17] was 4.1±0.4 RU/mg protein. For the same molecule, the “Superoxide dismutase activity, RU/ min per mg protein” value [9] was 4.5±0.43 # RU/ min per mg protein, the “Amount of food consumed” value ([10]; DIO rats (high-fat diet)) was 29 g/day and the “Calorie content of food” value ([10]; DIO rats (high-fat diet)) was 823 kJ/day. For the same molecule, the “BMI (g/cm^2)” value ([10]; DIO rats (high-fat diet)) was 0.65 g/cm^2, the “Weight gain as of the end of the experiment (%)” value ([10]; DIO rats (high-fat diet)) was 62% and the “Amount of food consumed” value ([10]; control rats (standard diet)) was 32 g/day. For the same molecule, the “Calorie content of food” value ([10]; control rats (standard diet)) was 490 kJ/day, the “BMI (g/cm^2)” value ([10]; control rats (standard diet)) was 0.59 g/cm^2 and the “Weight gain as of the end of the experiment (%)” value ([10]; control rats (standard diet)) was 59%. For the same molecule, the “levels of triglycerides, cholesterol and free fatty acids in the serum” value ([11]; animals fed a high-fat diet, zinc aspartate 2.25 mg/ml intragastrically in a volume of 2 ml) was “almost at the same level as in the control group”, the alkaline phosphatase activity ([11]; serum, animals on high-fat diet treated intragastrically) was “higher than both in the group of diet-induced obesity models and in the control group” and the albumin values ([11]; serum, obese animals treated intragastrically, versus untreated obese animals) was “had no effect on albumin values”. For the same molecule, the “Indoleamine dioxygenase activity” value ([12]; DIO rats (high-fat diet)) was 1768 ± 274 µmol/mg protein, the “Monoamine oxidase activity” value ([12]; DIO rats (high-fat diet)) was 1.72 ±0.03 RU/mg protein and the “Serotonin” value ([12]; DIO rats (high-fat diet)) was 9.73 ± 0.82 µg/g. The “Tryptophan” value ([12]; DIO rats (high-fat diet)) was 89.4 ± 8.99 µg/g, the “Tryptophan decarboxylase activity” value ([12]; DIO rats (high-fat diet)) was 0.78 ± 0.19 RU/mg protein and the “Tryptophan hydroxylase activity” value ([12]; DIO rats (high-fat diet)) was 253 ± 58 RU/mg protein. The “Indoleamine dioxygenase activity” value ([12]; control rats (standard diet)) was 2150 ± 231 µmol/mg protein, the “Monoamine oxidase activity” value ([12]; control rats (standard diet)) was 3.82 ±0.07 RU/mg protein and the “Serotonin” value ([12]; control rats (standard diet)) was 7.41 ± 0.54 µg/g. For the same molecule, the “Tryptophan” value ([12]; control rats (standard diet)) was 154.7 ± 13.6 µg/g, the “Tryptophan decarboxylase activity” value ([12]; control rats (standard diet)) was 0.79 ± 0.22 RU/mg protein and the “Tryptophan hydroxylase activity” value ([12]; control rats (standard diet)) was 375 ± 61 RU/mg protein.
